The supplement of paper PMC13207355

Tests used:
Conditions in all cases: exposure time: 72 h
[1] = test system: E28 (patient-derived glioblastoma stem cells of classical subtype); test: surviving fraction (nuclei count normalised to DMSO); higher = more cells surviving (less toxic)
[2] = test system: E31 (patient-derived glioblastoma stem cells of proneural subtype); test: as above
[3] = test system: E13 (patient-derived glioblastoma stem cells of classical subtype); test: as above
[4] = test system: E21 (patient-derived glioblastoma stem cells of mesenchymal subtype); test: as above
[5] = test system: FT3469 (normal neural stem cell line); test: as above
[6] = test system: E57 (patient-derived glioblastoma stem cells of mesenchymal subtype); test: as above
[7] = test system: E34 (patient-derived glioblastoma stem cells of proneural subtype); test: as above
[8] = test system: E28; test: phenotypic distance (Euclidean, principal components) from DMSO controls (arbitrary units); higher = stronger morphological change
[9] = test system: E31; test: as above
[10] = test system: E13; test: as above
[11] = test system: E21; test: as above
[12] = test system: FT3469; test: as above
[13] = test system: E57; test: as above
[14] = test system: E34; test: as above
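Wherever phenotypic distance (Euclidean, principal components) from DMSO controls is given: cell Painting imaging in 384-well plates, CellProfiler features reduced to at least 20 principal components, Euclidean distance versus same-plate DMSO vehicle wells (0.1% v/v), median over six images per well.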
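Wherever surviving fraction (nuclei count normalised to DMSO) is given: nuclei counted by high-content imaging of Hoechst-stained cells in laminin-coated 384-well plates, relative to 0.1% DMSO vehicle wells, with staurosporine as cell-death control.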

O=C(Oc1cccc2cccnc12)c1ccccc1 [Benzoxiquine]
surviving fraction ([1]; 4.1 nM): 0.997 | surviving fraction ([1]; 12.3 nM): 1.14 | surviving fraction ([1]; 37 nM): 1.07 | surviving fraction ([1]; 111.1 nM): 1.1 | surviving fraction ([1]; 333.3 nM): 1.07 | surviving fraction ([1]; 1000 nM): 1.27 | surviving fraction ([1]; 3000 nM): 0.00427 | surviving fraction ([2]; 4.1 nM): 0.993 | surviving fraction ([2]; 12.3 nM): 0.838 | surviving fraction ([2]; 37 nM): 0.975 | surviving fraction ([2]; 111.1 nM): 1.19 | surviving fraction ([2]; 333.3 nM): 1.04 | surviving fraction ([2]; 1000 nM): 1.04 | surviving fraction ([2]; 3000 nM): 0 | surviving fraction ([3]; 4.1 nM): 0.876 | surviving fraction ([3]; 12.3 nM): 0.962 | surviving fraction ([3]; 37 nM): 1.05 | surviving fraction ([3]; 111.1 nM): 0.997 | surviving fraction ([3]; 333.3 nM): 1.09 | surviving fraction ([3]; 1000 nM): 0.85 | surviving fraction ([3]; 3000 nM): 0.000925 | surviving fraction ([4]; 4.1 nM): 0.962 | surviving fraction ([4]; 12.3 nM): 1.11 | surviving fraction ([4]; 37 nM): 1.13 | surviving fraction ([4]; 111.1 nM): 1.1 | surviving fraction ([4]; 333.3 nM): 0.981 | surviving fraction ([4]; 1000 nM): 1.04 | surviving fraction ([4]; 3000 nM): 0 | surviving fraction ([5]; 4.1 nM): 1.05 | surviving fraction ([5]; 12.3 nM): 0.924 | surviving fraction ([5]; 37 nM): 1.06 | surviving fraction ([5]; 111.1 nM): 1.03 | surviving fraction ([5]; 333.3 nM): 1.21 | surviving fraction ([5]; 1000 nM): 1 | surviving fraction ([5]; 3000 nM): 0.00288 | surviving fraction ([6]; 4.1 nM): 0.965 | surviving fraction ([6]; 12.3 nM): 0.992 | surviving fraction ([6]; 37 nM): 0.997 | surviving fraction ([6]; 111.1 nM): 1.01 | surviving fraction ([6]; 333.3 nM): 0.999 | surviving fraction ([6]; 1000 nM): 1.02 | surviving fraction ([6]; 3000 nM): 0.00305 | surviving fraction ([7]; 4.1 nM): 0.906 | surviving fraction ([7]; 12.3 nM): 0.899 | surviving fraction ([7]; 37 nM): 0.981 | surviving fraction ([7]; 111.1 nM): 1.1 | surviving fraction ([7]; 333.3 nM): 1.07 | surviving fraction ([7]; 1000 nM): 0.844 | surviving fraction ([7]; 3000 nM): 0.00175 | phenotypic distance ([8]; 4.1 nM): 1.39 | phenotypic distance ([8]; 12.3 nM): 0.791 | phenotypic distance ([8]; 37 nM): 1.24 | phenotypic distance ([8]; 111.1 nM): 0.938 | phenotypic distance ([8]; 333.3 nM): 0.845 | phenotypic distance ([8]; 1000 nM): 1.59 | phenotypic distance ([8]; 3000 nM): 17.6 | phenotypic distance ([9]; 4.1 nM): 1.12 | phenotypic distance ([9]; 12.3 nM): 1.22 | phenotypic distance ([9]; 37 nM): 0.854 | phenotypic distance ([9]; 111.1 nM): 1.7 | phenotypic distance ([9]; 333.3 nM): 1.32 | phenotypic distance ([9]; 1000 nM): 1.22 | phenotypic distance ([9]; 3000 nM): 15.5 | phenotypic distance ([10]; 4.1 nM): 1.08 | phenotypic distance ([10]; 12.3 nM): 1.14 | phenotypic distance ([10]; 37 nM): 0.78 | phenotypic distance ([10]; 111.1 nM): 0.506 | phenotypic distance ([10]; 333.3 nM): 0.775 | phenotypic distance ([10]; 1000 nM): 0.864 | phenotypic distance ([10]; 3000 nM): 19.1 | phenotypic distance ([11]; 4.1 nM): 1.17 | phenotypic distance ([11]; 12.3 nM): 0.851 | phenotypic distance ([11]; 37 nM): 1.34 | phenotypic distance ([11]; 111.1 nM): 0.833 | phenotypic distance ([11]; 333.3 nM): 1.24 | phenotypic distance ([11]; 1000 nM): 0.732 | phenotypic distance ([11]; 3000 nM): 23.9 | phenotypic distance ([12]; 4.1 nM): 0.579 | phenotypic distance ([12]; 12.3 nM): 0.893 | phenotypic distance ([12]; 37 nM): 0.62 | phenotypic distance ([12]; 111.1 nM): 0.641 | phenotypic distance ([12]; 333.3 nM): 1.07 | phenotypic distance ([12]; 1000 nM): 0.688 | phenotypic distance ([12]; 3000 nM): 14.3 | phenotypic distance ([13]; 4.1 nM): 0.568 | phenotypic distance ([13]; 12.3 nM): 0.458 | phenotypic distance ([13]; 37 nM): 0.358 | phenotypic distance ([13]; 111.1 nM): 0.673 | phenotypic distance ([13]; 333.3 nM): 0.716 | phenotypic distance ([13]; 1000 nM): 0.72 | phenotypic distance ([13]; 3000 nM): 13.7 | phenotypic distance ([14]; 4.1 nM): 0.673 | phenotypic distance ([14]; 12.3 nM): 0.614 | phenotypic distance ([14]; 37 nM): 0.56 | phenotypic distance ([14]; 111.1 nM): 0.455 | phenotypic distance ([14]; 333.3 nM): 0.815 | phenotypic distance ([14]; 1000 nM): 1.42 | phenotypic distance ([14]; 3000 nM): 19.8
